Test system: MDA-MB-231 cells
Test: MTS proliferation assay on rigid or compliant substrates
Type: cell-based, human
From the text: This motivated the hypothesis that blocking Gli-activity in metastatic breast tumors could obstruct their potential to establish in bone and adopt a bone-destructive phenotype. […] It is important to note the large variability in tumor burden inherent to the intracardiac model as evidenced by the large standard error. Even with this variability in consideration, there is significant tumor burden in the 10% Aln-GANT58 treated mice despite maintenance of high bone area (FIG. 18C). Based on the present inventors' previous studies reporting that both rigid mineralized bone matrix and TGF-β drive Gli2 expression in bone-metastatic cancer cell lines, it was hypothesized that GANT58-BTNP treatment may have a spatially heterogeneous effect on tumor cells that mirrors the spatial variation in Gli2 expression. Therefore, the effect of GANT58-BTNP treatment on tumor cell proliferation was measured by measuring Ki67 via IHC (FIG. 14F). […]
Proliferation Assay. […] Cell proliferation was determined by MTS assay using the CellTiter 96 Aqueous Non-Radioactive Cell Proliferation Assay kit (Promega) per the manufacturer's instructions. Absorbance values were measured at OD 490 nm on a plate reader and normalized to no cell controls in the respective GelMA coated and uncoated wells.

c1cc(-c2sc(-c3ccncc3)c(-c3ccncc3)c2-c2ccncc2)ccn1 [GANT58]
proliferation of cells on compliant substrates (40 μM GANT58, GelMA gels): not on compliant substrates
proliferation of cells on rigid substrates (40 μM GANT58, tissue culture plastic): significantly reduced

Source: patent publication US12648913B2, “Polymeric nanocarriers and methods of use thereof” (Vanderbilt University, priority 2019, dated 2026)
